Experimental data: US11766430B2, “Methods of using a phenoxypropylamine compound to treat pain” (Minerva Neurosciences, Inc., priority 2018, dated 2023)
“And” between values parts separate entries of the source, which are not always exact repeats. Equal entries are not always repeated.

Tested on: carrageenan-induced mechanical hyperalgesia in rats
Assay: Carrageenan-induced mechanical hyperalgesia, paw pressure test, MIN-117 1-10 mg/kg (Example 4)
Type: in vivo, male Sprague-Dawley rats
Details: Carrageenan 2%; for Nociceptive threshold, injured paw (mean ± s.e.m.) / % activity, injured paw: 3 mg/kg; for paw withdrawal threshold, control paw, Mean: n = 10
Protocol: In this model, inflammation is induced by intraplantar injection of carrageenan (2%) into the right hindpaw of the rat. Three hours later, reaction thresholds are measured using the paw pressure test. Pressure is gradually applied to both hind paws (inflamed and control) of the rat, and reaction thresholds are determined as the pressure (g) required to elicit paw withdrawal or vocalization. Morphine (3 mg/kg, s.c.), used as positive control.
The experiments in this study used fifty (50) male Sprague-Dawley rats (SPF status, Janvier, France), each weighing 183-244 g during the experimental phase. The rats were housed in a temperature (20-24° C.) and relative humidity (45%-65%) controlled room and acclimated to an artificial day/night cycle of 12 hours light (6.30 a.m. to 6.30 p.m.)/12 hours darkness. Rats had free access to sterilized tap water and were fed ad libitum with pelleted complete diet (reference A04, S.A.F.E.). Animals were housed 4 per cage (cages Type E) and were acclimated for a period of at least 5 days before any testing. Each rat was identified by tail markings. Based on the SPF status of the animal facilities, there is no reason to expect that contaminants were present in the food, water or bedding, at levels capable of interfering with the results of the tests.
Static mechanical hyperalgesia was assessed using the Paw Pressure test or Randall & Selitto test (Randall, L. O. and Selitto, J. J., A method for measurement of analgesic activity on inflamed tissue, Arch Int Pharmacodyn, 1957(111): 409-419). This test requires the application of an increasing pressure on the hind paws between a flat surface and a blunt pointer. This test is usually used with animals with one hind paw inflamed by an injection or injured by ligation, and one normal hind paw, to evaluate drugs for analgesic action. The apparatus exerts a steadily increasing force and reaction threshold is determined as the pressure (g) required to elicit paw withdrawal and/or vocalization. In the experiment, animals were gently handled by the experimenter and static mechanical hyperalgesia was assessed. Each reaction threshold measurement was done for both hind paws.
Five (5) experimental groups of 10 rats each were used. Each group was first injected with 100 μL of a 2% carrageenan suspension was injected into the plantar aspect of the right hindpaw. Three hours after carrageenan injection, nociceptive reaction thresholds (vocalization or paw withdrawal) were measured in order to select animals meeting the inclusion criteria: 20 g<paw withdrawal threshold<240 g (baseline). The 5 groups were then administered the following: • Group 1: vehicle (0.5% HPMC), i.p., solution (negative control); • Group 2: MIN-117 (1 mg/kg, i.p.) in 0.5% HPMC, suspension; • Group 3: MIN-117 (3 mg/kg, i.p.) in 0.5% HPMC, suspension; • Group 4: MIN-117 (10 mg/kg, i.p.) in 0.5% HPMC, suspension; and • Group 5: morphine (3 mg/kg, s.c.) in 0.9% NaCl, solution (positive control).
Thirty minutes after morphine injection, the antihyperalgesic effect of morphine was evaluated using the paw pressure test. For vehicle and MIN-117 administration, the antihyperalgesic effect was evaluated after 120 min. using the paw pressure test.
Vehicle and MIN-117 were intraperitoneally administered at 10 mL/kg. Morphine was subcutaneously administered at 5 mL/kg. Dosing and testing were performed in a random order by a blinded experimenter except for the morphine-treated group. Doses were expressed in terms of free active substance.
Results were expressed as: • The paw withdrawal threshold (mean±s.e.m.) in grams of contact pressure for each group, calculated from individual paw withdrawal thresholds • The percentage of variation of the paw withdrawal threshold calculated from the mean value of the vehicle-treated group • The percentage of activity of activity of the compound on carrageenan-induced mechanical hyperalgesia, calculated as follows: […]

[1] = 3 mg/kg s.c., T0 (before dosing)
[2] = 3 mg/kg s.c., T0 + 30 min, listed as morphine
[3] = Morphine 3 mg/kg s.c. group, Baseline (before dosing)
[4] = Morphine 3 mg/kg s.c., 30 min after treatment

CN1CC[C@]23c4c5ccc(O)c4O[C@H]2[C@@H](O)C=C[C@H]3[C@H]1C5 [Morphine, reference compound]
Effect on nociceptive threshold vs baseline pre-treatment (in words) (3 mg/kg s.c., 30 min. after the injection): marked and significant increase | Nociceptive threshold, control paw (mean ± s.e.m.) (3 mg/kg s.c., T0 (3 h after carrageenan, before dosing)): 376 ± 14.5 g | % variation vs control paw, injured paw [1]: −47% | % variation vs vehicle-treated group, injured paw [1]: 0% | Nociceptive threshold, injured paw (mean ± s.e.m.) [1]: 200 ± 6.7 g | Nociceptive threshold, injured paw (mean ± s.e.m.) (3 mg/kg s.c., T0 (before dosing), listed as morphine): 200 ± 6.7 g | % variation vs control paw, injured paw (3 mg/kg s.c., T0 + 30 min): −17% | % variation vs pre-drug threshold, injured paw (3 mg/kg s.c., T0 + 30 min): 162% | % activity, injured paw (3 mg/kg s.c., T0 + 30 min): 190% | Nociceptive threshold, injured paw (mean ± s.e.m.) (3 mg/kg s.c., T0 + 30 min): 524 ± 35.6 g | % activity, injured paw [2]: +190% | Nociceptive threshold, injured paw (mean ± s.e.m.) [2]: 524 ± 35.6 g | % variation vs control paw, injured paw [3]: −47% | % variation vs vehicle treated group, injured paw [3]: 0% | paw withdrawal threshold, control paw, Mean (Morphine 3 mg/kg s.c. group, Baseline (before dosing, 3 h after carrageenan)): 376 g | % activity on carrageenan-induced mechanical hyperalgesia, injured paw (Morphine 3 mg/kg s.c., 30 min): 190% | % variation vs control paw, injured paw (Morphine 3 mg/kg s.c., 30 min): −17% | % variation vs pre-drug threshold, injured paw (Morphine 3 mg/kg s.c., 30 min): 162% | paw withdrawal threshold, control paw, individual rats [4]: 680 g (4×) and 640 g (2×) and 600 g and 620 g and 560 g and 520 g | paw withdrawal threshold, injured paw, individual rats [4]: 680 g and 600 g (2×) and 500 g and 640 g and 320 g and 400 g and 540 g and 440 g and 520 g | paw withdrawal threshold, control paw, Mean [4]: 630 g
